# Assay results reported in the NIST ThermoML archive (doi:10.1016/j.jct.2018.07.017).
# ± gives the expanded uncertainty stated by the source.
# Experiments:
# [1] = for vapor or sublimation pressure: Transpiration method
# [2] = Molar enthalpy of transition or fusion; conditions: Crystal; DSC
smiles,measurement,setting,value
CC(C)(O)C(=O)O [2-hydroxy-2-methylpropanoic acid],mass density,"[1]; 293 K, 101.33 kPa, Crystal, Pycnometric method",1240 ± 400 kg/m3
same,vapor or sublimation pressure,"[1]; 313.3 K, Crystal",0.005081 ± 0.00037 kPa
same,vapor or sublimation pressure,"[1]; 318.2 K, Crystal",0.008221 ± 0.00057 kPa
same,vapor or sublimation pressure,"[1]; 323.2 K, Crystal",0.01418 ± 0.00095 kPa
same,vapor or sublimation pressure,"[1]; 328.1 K, Crystal",0.02187 ± 0.0014 kPa
same,vapor or sublimation pressure,"[1]; 333.1 K, Crystal",0.03606 ± 0.0024 kPa
same,vapor or sublimation pressure,"[1]; 338.1 K, Crystal",0.05555 ± 0.0036 kPa
same,vapor or sublimation pressure,"[1]; 343.1 K, Crystal",0.08884 ± 0.0057 kPa
same,vapor or sublimation pressure,"[1]; 347.8 K, Crystal",0.139 ± 0.0088 kPa
same,vapor or sublimation pressure,"[1]; 356 K, Liquid",0.2724 ± 0.017 kPa
same,vapor or sublimation pressure,"[1]; 359.8 K, Liquid",0.3463 ± 0.022 kPa
same,vapor or sublimation pressure,"[1]; 363.7 K, Liquid",0.4479 ± 0.028 kPa
same,vapor or sublimation pressure,"[1]; 367.7 K, Liquid",0.5693 ± 0.035 kPa
same,vapor or sublimation pressure,"[1]; 369.3 K, Liquid",0.6241 ± 0.039 kPa
same,vapor or sublimation pressure,"[1]; 371.7 K, Liquid",0.7211 ± 0.045 kPa
same,vapor or sublimation pressure,"[1]; 373 K, Liquid",0.7664 ± 0.048 kPa
same,vapor or sublimation pressure,"[1]; 375.6 K, Liquid",0.8814 ± 0.055 kPa
same,vapor or sublimation pressure,"[1]; 377.1 K, Liquid",0.9824 ± 0.061 kPa
same,vapor or sublimation pressure,"[1]; 379.5 K, Liquid",1.093 ± 0.068 kPa
same,vapor or sublimation pressure,"[1]; 379.6 K, Liquid",1.097 ± 0.068 kPa
same,Normal melting temperature,"[1]; Crystal, DTA",75 ± 1.1 °C
same,Molar enthalpy of transition or fusion,[2],4.21 ± 0.143 kcal/mol
